Reference: US20250228239A1, “MOLECULES HAVING PESTICIDAL UTILITY, AND INTERMEDIATES, COMPOSITIONS, AND PROCESSES, RELATED THERETO” (priority 2024, published 2025)

Tests used:
Assay type in all cases: in vivo
[1] = test system: Cabbage Looper (Trichoplusia ni, TRIPNI); assay: Bioassays on Cabbage Looper (CL), 128-well diet tray assay; conditions: Trichoplusia ni; Cabbage Looper, Table ABC / ABC-DP rating; read-out: CL rating
Procedure, shortened: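 Percent mortality, averaged across eight replicate wells, after second-instar larvae (1–5 per well) fed for five to seven days on diet dosed at 50 μg/cm^2. Compound was applied in acetone-water 90:10 and dried; trays kept vented at 25° C under 14:10 photoperiod.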

[2] = test system: Beet Armyworm (Spodoptera exigua, LAPHEG); assay: Bioassays on Beet Armyworm (BAW), 128-well diet tray assay; conditions: Spodoptera exigua; Beet Armyworm, Table ABC / ABC-DP rating; read-out: BAW rating
Procedure, shortened: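 One to five second-instar larvae per well on artificial diet surface-treated with 50 μg/cm^2 test molecule (applied in 90:10 acetone-water, dried), eight wells per compound. Trays held vented at 25° C., 14:10 light-dark for five to seven days; percent mortality averaged over the eight wells.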

[3] = test system: Yellow Fever Mosquito (Aedes aegypti, AEDSAE); conditions: Yellow Fever Mosquito, Table ABC / ABC-DP rating
Procedure, shortened: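 Compounds from 4000 ppm DMSO stocks were diluted in 90:10 water/acetone and dispensed into wells, then infested with about 1-day-old larvae in liver-powder water. Covered plates were held at room temperature for 3 days and each well was scored for mortality against a rating scale; six replicate plates per compound.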

| SMILES | pest or weed control at 50 µg/cm2 [1] | pest or weed control at 50 µg/cm2 [2] | YFM rating [3] |
| --- | --- | --- | --- |
| O=C(NNc1ncccc1Cl)c1cc(NC(=O)[C@H]2[C@H](c3cc(Cl)cc(Cl)c3)C2(Cl)Cl)ccc1Cl (relative stereo) [F2505, trans-2,2-Dichloro-N-(4-chloro-3-(2-(3-chloropyridin-2-yl)hydrazine-1-carbonyl)phenyl)-3-(3,5-dichlorophenyl)cyclopropane-1-carboxamide] | 50 to 100% | 50 to 100% | A (80–100) |
| O=C(NNc1ccc(Cl)nn1)c1cc(NC(=O)[C@H]2[C@H](c3cc(Cl)cc(Cl)c3)C2(Cl)Cl)ccc1Cl (relative stereo) [F2506, trans-2,2-Dichloro-N-(4-chloro-3-(2-(6-chloropyridazin-3-yl)hydrazine-1-carbonyl)phenyl)-3-(3,5-dichlorophenyl)cyclopropane-1-carboxamide] | 50 to 100% | 50 to 100% | A (80–100) |
| CN(NC(=O)c1cc(NC(=O)[C@H]2[C@H](c3cc(Cl)cc(Cl)c3)C2(Cl)Cl)ccc1Cl)c1cc(C(F)(F)F)ccn1 (relative stereo) [F2507, trans-2,2-Dichloro-N-(4-chloro-3-(2-methyl-2-(4-(trifluoromethyl)pyridin-2-yl)hydrazine-1-carbonyl)phenyl)-3-(3,5-dichlorophenyl)cyclopropane-1-carboxamide] | 50 to 100% | 50 to 100% | A (80–100) |
| O=C(NNc1ncccn1)c1cc(NC(=O)[C@H]2[C@H](c3cc(Cl)cc(Cl)c3)C2(Cl)Cl)ccc1Cl (relative stereo) [F2508, trans-2,2-Dichloro-N-(4-chloro-3-(2-(pyrimidin-2-yl)hydrazine-1-carbonyl)phenyl)-3-(3,5-dichlorophenyl)cyclopropane-1-carboxamide] | 50 to 100% | 50 to 100% | A (80–100) |
| O=C(NNc1ccncn1)c1cc(NC(=O)[C@H]2[C@H](c3cc(Cl)cc(Cl)c3)C2(Cl)Cl)ccc1Cl (relative stereo) [F2509, trans-2,2-Dichloro-N-(4-chloro-3-(2-(pyrimidin-4-yl)hydrazine-1-carbonyl)phenyl)-3-(3,5-dichlorophenyl)cyclopropane-1-carboxamide] | 50 to 100% | 50 to 100% | A (80–100) |
| CC(=O)NNC(=O)c1cc(NC(=O)[C@H]2[C@H](c3cc(Cl)cc(Cl)c3)C2(Cl)Cl)ccc1Cl (relative stereo) [F2514, trans-N-(3-(2-acetylhydrazine-1-carbonyl)-4-chlorophenyl)-2,2-dichloro-3-(3,5-dichlorophenyl)cyclopropane-1-carboxamide] | 50 to 100% | 50 to 100% | A (80–100) |
| O=C(NNC(=O)C(F)(F)F)c1cc(NC(=O)[C@H]2[C@H](c3cc(Cl)cc(Cl)c3)C2(Cl)Cl)ccc1Cl (relative stereo) [F2515, trans-2,2-Dichloro-N-(4-chloro-3-(2-(2,2,2-trifluoroacetyl)hydrazine-1-carbonyl)phenyl)-3-(3,5-dichlorophenyl)cyclopropane-1-carboxamide] | 50 to 100% | 50 to 100% | A (80–100) |
| N#CC1(C(=O)NNC(=O)c2cc(NC(=O)[C@H]3[C@H](c4cc(Cl)cc(Cl)c4)C3(Cl)Cl)ccc2Cl)CC1 (relative stereo) [F2518, trans-2,2-Dichloro-N-(4-chloro-3-(2-(1-cyanocyclopropane-1-carbonyl)hydrazine-1-carbonyl)phenyl)-3-(3,5-dichlorophenyl)cyclopropane-1-carboxamide] | 50 to 100% | 50 to 100% | A (80–100) |
| O=C(NNC(=O)c1cc(NC(=O)[C@H]2[C@H](c3cc(Cl)cc(Cl)c3)C2(Cl)Cl)ccc1Cl)c1ccccc1 (relative stereo) [F2519, trans-N-(3-(2-Benzoylhydrazine-1-carbonyl)-4-chlorophenyl)-2,2-dichloro-3-(3,5-dichlorophenyl)cyclopropane-1-carboxamide] | 50 to 100% | 50 to 100% | A (80–100) |
| CN(NC(=O)c1cc(NC(=O)[C@H]2[C@H](c3cc(Cl)cc(Cl)c3)C2(Cl)Cl)ccc1Cl)C(=O)OC(C)(C)C (relative stereo) [F2520, trans-tert-Butyl 2-(2-chloro-5-(2,2-dichloro-3-(3,5-dichlorophenyl)cyclopropane-1-carboxamido)benzoyl)-1-methylhydrazine-1-carboxylate] | 50 to 100% | 50 to 100% | A (80–100) |
| CNNC(=O)c1cc(NC(=O)[C@H]2[C@H](c3cc(Cl)cc(Cl)c3)C2(Cl)Cl)ccc1Cl.Cl (relative stereo) [F2521, trans-2,2-Dichloro-N-(4-chloro-3-(2-methylhydrazine-1-carbonyl)phenyl)-3-(3,5-dichlorophenyl)cyclopropane-1-carboxamide hydrochloride] | 50 to 100% | 50 to 100% | A (80–100) |
| CC(=O)N(C)NC(=O)c1cc(NC(=O)[C@H]2[C@H](c3cc(Cl)cc(Cl)c3)C2(Cl)Cl)ccc1Cl (relative stereo) [F2522, trans-N-(3-(2-Acetyl-2-methylhydrazine-1-carbonyl)-4-chlorophenyl)-2,2-dichloro-3-(3,5-dichlorophenyl)cyclopropane-1-carboxamide] | 50 to 100% | 50 to 100% | A (80–100) |
| CN(NC(=O)c1cc(NC(=O)[C@H]2[C@H](c3cc(Cl)cc(Cl)c3)C2(Cl)Cl)ccc1Cl)C(=O)CC1CC1 (relative stereo) [F2524, trans-2,2-Dichloro-N-(4-chloro-3-(2-(2-cyclopropylacetyl)-2-methylhydrazine-1-carbonyl)phenyl)-3-(3,5-dichlorophenyl)cyclopropane-1-carboxamide] | 50 to 100% | 50 to 100% | A (80–100) |
| CN(NC(=O)c1cc(NC(=O)[C@H]2[C@H](c3cc(Cl)cc(Cl)c3)C2(Cl)Cl)ccc1Cl)C(=O)C1(C#N)CC1 (relative stereo) [F2525, trans-2,2-Dichloro-N-(4-chloro-3-(2-(1-cyanocyclopropane-1-carbonyl)-2-methylhydrazine-1-carbonyl)phenyl)-3-(3,5-dichlorophenyl)cyclopropane-1-carboxamide] | 50 to 100% | 50 to 100% | A (80–100) |
| CN(C)CC(=O)NNC(=O)c1cc(NC(=O)[C@H]2[C@H](c3cc(Cl)cc(Cl)c3)C2(Cl)Cl)ccc1Cl (relative stereo) [F2530, trans-2,2-Dichloro-N-(4-chloro-3-(2-(dimethylglycyl)hydrazine-1-carbonyl)phenyl)-3-(3,5-dichlorophenyl)cyclopropane-1-carboxamide] | 50 to 100% | 50 to 100% | A (80–100) |
| O=C(NNC(=O)c1cc(NC(=O)[C@H]2[C@H](c3cc(Cl)cc(Cl)c3)C2(Cl)Cl)ccc1Cl)c1ccccn1 (relative stereo) [F2531, trans-2,2-Dichloro-N-(4-chloro-3-(2-picolinoylhydrazine-1-carbonyl)phenyl)-3-(3,5-dichlorophenyl)cyclopropane-1-carboxamide] | 50 to 100% | 50 to 100% | A (80–100) |
| O=C(NCC1CC1)NNC(=O)c1cc(NC(=O)[C@H]2[C@H](c3cc(Cl)cc(Cl)c3)C2(Cl)Cl)ccc1Cl (relative stereo) [F2538, trans-2-(2-Chloro-5-(2,2-dichloro-3-(3,5-dichlorophenyl)cyclopropane-1-carboxamido)benzoyl)-N-(cyclopropylmethyl)hydrazine-1-carboxamide] | 50 to 100% | 50 to 100% | A (80–100) |
| O=C(NNC(=S)Nc1ccccc1)c1cc(NC(=O)[C@H]2[C@H](c3cc(Cl)cc(Cl)c3)C2(Cl)Cl)ccc1Cl (relative stereo) [F2541, trans-2,2-Dichloro-N-(4-chloro-3-(2-(phenylcarbamothioyl)hydrazine-1-carbonyl)phenyl)-3-(3,5-dichlorophenyl)cyclopropane-1-carboxamide] | 50 to 100% | 50 to 100% | A (80–100) |
| CCOC(=O)NNC(=O)c1cc(NC(=O)[C@H]2[C@H](c3cc(Cl)cc(Cl)c3)C2(Cl)Cl)ccc1Cl (relative stereo) [F2542, trans-ethyl 2-(2-chloro-5-(2,2-dichloro-3-(3,5-dichlorophenyl)cyclopropane-1-carboxamido)benzoyl)hydrazine-1-carboxylate] | 50 to 100% | 50 to 100% | B (More than 0 – Less than 80) |
| O=C(NNC(=O)c1cc(NC(=O)[C@H]2[C@H](c3cc(Cl)cc(Cl)c3)C2(Cl)Cl)ccc1Cl)OC(F)(F)F (relative stereo) [F2543, trans-Trifluoromethyl 2-(2-chloro-5-(2,2-dichloro-3-(3,5-dichlorophenyl)cyclopropane-1-carboxamido)benzoyl)hydrazine-1-carboxylate] | 50 to 100% | 50 to 100% | A (80–100) |
